# From ChEMBL document CHEMBL1201862, “PubChem BioAssay data set” (2004)
# Calls of active or inactive are those of the source.
# Key:
# [1] = blockers of HIV-1 envelope-mediated cell-cell fusion – cherry-pick, dose response (AID 652057); type: functional, cell-based
# [2] = blockers of HIV-1 ZM109 envelope-driven cell-cell fusion – HeLa effector, CEM target cells, luciferase, cherry-pick, dose response (AID 652058); type: functional, cell-based;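 also: luciferase signal from HIV-1 Env mediated cell-cell fusion of effector and target cells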
# [3] = HIV-1 AD8 envelope cell-cell fusion blockers – cherry-pick, dose response (AID 652062); type: functional, cell-based;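 also: luciferase signal from cell-cell fusion driven by HIV-1 clade B AD8 Env; potency is for inhibitors of fusion seen as a drop in luminescence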
# [4] = Luminescence Cell-Based Dose Response HTS to Identify Activators of Luciferase Translation or Activity in H4 […] Cells. [Related pubchem assays: 1829 (Project Summary), 1814 (Primary HTS)]; type: functional
# [5] = molecular target: Glyceraldehyde-3-phosphate dehydrogenase (Homo sapiens, UniProt P04406)
# Glyceraldehyde-3-phosphate dehydrogenase, sequence (P04406 whole entry): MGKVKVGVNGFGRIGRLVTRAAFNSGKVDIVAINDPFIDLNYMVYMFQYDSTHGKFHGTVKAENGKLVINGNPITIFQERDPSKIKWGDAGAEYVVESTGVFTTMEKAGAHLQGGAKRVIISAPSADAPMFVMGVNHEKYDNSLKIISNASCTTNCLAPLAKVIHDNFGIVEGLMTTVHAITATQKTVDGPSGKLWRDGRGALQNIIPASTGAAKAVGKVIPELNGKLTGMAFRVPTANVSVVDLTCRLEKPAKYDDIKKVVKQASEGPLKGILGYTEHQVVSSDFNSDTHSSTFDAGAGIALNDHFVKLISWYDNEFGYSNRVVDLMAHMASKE
# [6] = molecular target: T1, Alkaline phosphatase, tissue-nonspecific isozyme (Homo sapiens, UniProt P05186); test: potency against alkaline phosphatase TNAP – biochemical, luminescent, dose response, SAR follow-up (AID 1056)
# T1 sequence (P05186 whole entry): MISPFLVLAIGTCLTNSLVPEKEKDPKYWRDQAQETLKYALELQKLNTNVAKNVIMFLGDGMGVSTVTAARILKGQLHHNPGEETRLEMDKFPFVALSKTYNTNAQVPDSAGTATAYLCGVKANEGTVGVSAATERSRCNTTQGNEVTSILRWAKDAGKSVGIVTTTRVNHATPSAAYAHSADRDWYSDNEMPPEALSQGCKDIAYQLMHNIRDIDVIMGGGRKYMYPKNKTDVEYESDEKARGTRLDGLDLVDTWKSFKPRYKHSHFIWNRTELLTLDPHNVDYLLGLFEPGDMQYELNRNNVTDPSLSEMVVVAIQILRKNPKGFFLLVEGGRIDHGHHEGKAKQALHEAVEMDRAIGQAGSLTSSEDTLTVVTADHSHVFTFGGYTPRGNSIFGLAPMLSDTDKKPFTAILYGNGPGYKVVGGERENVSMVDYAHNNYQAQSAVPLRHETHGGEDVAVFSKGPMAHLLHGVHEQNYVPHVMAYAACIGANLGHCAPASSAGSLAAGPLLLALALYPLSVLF
# Estrogen receptor = molecular target: T2, Estrogen receptor (Homo sapiens, UniProt P03372);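 also: potency for inhibiting coactivator peptide recruitment to the receptor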
# T2 sequence (P03372 whole entry): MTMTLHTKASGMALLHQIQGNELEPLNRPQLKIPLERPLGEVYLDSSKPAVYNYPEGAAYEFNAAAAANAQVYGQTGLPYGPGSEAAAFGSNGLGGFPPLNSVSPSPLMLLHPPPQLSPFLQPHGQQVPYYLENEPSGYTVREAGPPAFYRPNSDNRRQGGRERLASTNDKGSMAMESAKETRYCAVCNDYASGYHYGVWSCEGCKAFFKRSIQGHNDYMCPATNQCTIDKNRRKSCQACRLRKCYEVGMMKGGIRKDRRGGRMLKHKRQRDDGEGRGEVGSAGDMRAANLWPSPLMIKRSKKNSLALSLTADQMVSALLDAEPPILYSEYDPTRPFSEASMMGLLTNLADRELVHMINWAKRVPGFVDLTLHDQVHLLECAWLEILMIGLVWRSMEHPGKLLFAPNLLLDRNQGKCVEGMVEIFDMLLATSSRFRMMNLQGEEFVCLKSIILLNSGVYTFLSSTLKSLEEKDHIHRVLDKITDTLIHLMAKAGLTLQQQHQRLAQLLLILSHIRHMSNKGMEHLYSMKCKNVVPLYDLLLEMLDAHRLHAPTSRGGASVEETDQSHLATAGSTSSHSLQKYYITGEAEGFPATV
# [7] = molecular target: T3, Polyadenylate-binding protein 1 (Homo sapiens, UniProt P11940); test: MLLE binding blockers, Cy5 peptide tracer – biochemical, fluorescence polarization, Cy5-PAM2 peptide, secondary, miRNA deadenylation inhibitor project, dose response (AID 602260); type: functional; conditions: read-out: IC50_Mean
# T3 sequence (P11940 whole entry, the tested form may be a part): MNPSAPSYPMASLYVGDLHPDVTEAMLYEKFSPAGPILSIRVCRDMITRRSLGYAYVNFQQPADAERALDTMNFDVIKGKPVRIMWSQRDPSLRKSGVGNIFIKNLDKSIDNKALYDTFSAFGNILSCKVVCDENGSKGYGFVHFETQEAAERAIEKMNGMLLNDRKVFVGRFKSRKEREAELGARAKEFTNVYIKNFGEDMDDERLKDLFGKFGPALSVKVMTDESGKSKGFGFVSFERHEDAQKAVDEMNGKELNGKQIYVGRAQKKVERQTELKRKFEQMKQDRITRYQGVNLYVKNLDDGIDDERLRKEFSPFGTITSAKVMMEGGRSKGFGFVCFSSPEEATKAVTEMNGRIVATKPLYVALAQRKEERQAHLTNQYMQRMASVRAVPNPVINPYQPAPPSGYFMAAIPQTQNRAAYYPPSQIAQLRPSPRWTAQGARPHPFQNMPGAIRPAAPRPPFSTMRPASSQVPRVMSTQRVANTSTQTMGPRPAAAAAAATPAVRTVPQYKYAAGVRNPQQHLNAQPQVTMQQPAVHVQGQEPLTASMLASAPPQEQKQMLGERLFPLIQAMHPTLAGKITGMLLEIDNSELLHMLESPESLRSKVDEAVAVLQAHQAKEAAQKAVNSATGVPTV
# [8] = molecular target: T3, Polyadenylate-binding protein 1; test: MLLE domain peptide-binding blockers, IC50 – biochemical, fluorescence polarization, FITC-PAM2 peptide, dose response (AID 602259); type: functional; conditions: read-out: IC50_Mean
# Nonstructural protein 1 = Nonstructural protein 1 (Influenza A virus, UniProt Q194T2); type: functional, Influenza A virus (A/California/07/2009(H1N1))
# Nonstructural protein 1, sequence (Q194T2 whole entry): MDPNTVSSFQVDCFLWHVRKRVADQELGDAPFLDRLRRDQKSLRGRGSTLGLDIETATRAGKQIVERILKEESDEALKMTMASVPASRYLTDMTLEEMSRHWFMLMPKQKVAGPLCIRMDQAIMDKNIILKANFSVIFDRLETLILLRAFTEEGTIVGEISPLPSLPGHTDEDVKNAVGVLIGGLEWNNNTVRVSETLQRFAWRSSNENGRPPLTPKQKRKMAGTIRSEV
# Leucine aminopeptidase = molecular target: T4, Leucine aminopeptidase (Plasmodium falciparum 3D7, UniProt Q8IL11); test: P. falciparum M17LAP inhibitors, primary screen, biochemical, fluorogenic H-Leu-NHMec substrate, 1536-well (AID 1619); type: functional
# T4 sequence (Q8IL11 whole entry): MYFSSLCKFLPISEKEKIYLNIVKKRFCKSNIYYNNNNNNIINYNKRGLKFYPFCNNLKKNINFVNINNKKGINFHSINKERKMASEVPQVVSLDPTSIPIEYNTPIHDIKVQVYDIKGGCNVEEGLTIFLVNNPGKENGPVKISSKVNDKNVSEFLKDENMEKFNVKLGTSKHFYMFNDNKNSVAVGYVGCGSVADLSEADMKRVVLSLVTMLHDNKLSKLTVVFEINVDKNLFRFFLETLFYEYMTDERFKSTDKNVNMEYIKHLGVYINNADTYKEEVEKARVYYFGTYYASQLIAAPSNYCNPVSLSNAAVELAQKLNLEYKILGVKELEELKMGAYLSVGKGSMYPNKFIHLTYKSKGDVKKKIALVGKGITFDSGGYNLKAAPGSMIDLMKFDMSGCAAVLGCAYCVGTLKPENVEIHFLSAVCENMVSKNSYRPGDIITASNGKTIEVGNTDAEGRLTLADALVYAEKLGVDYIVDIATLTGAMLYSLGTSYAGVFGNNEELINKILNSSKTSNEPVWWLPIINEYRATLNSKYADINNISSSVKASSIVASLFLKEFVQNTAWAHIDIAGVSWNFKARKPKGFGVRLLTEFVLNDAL
# [9] = Trypanosoma cruzi growth suppression in host cells – NIH3T3 host cells, beta-gal luminescence, confirmation (AID 2044); type: functional, cell-based;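 also: intracellular parasites grown in NIH/3T3 mouse fibroblasts as host cells; luminescent beta-galactosidase reporter signal from transgenic T. cruzi replicating inside host cells; inhibitors lower the luminescence signal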
# [10] = NIH3T3 cell viability loss – ATP luminescence, mouse fibroblasts, counter-screen, dose response (AID 2010); type: functional, cell-based;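 also: cells exposed to compound for about 90 hours before reading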
# [11] = molecular target: T5, Short transient receptor potential channel 4 (Mus musculus, UniProt Q9QUQ5); test: block of DAMGO-driven TRPC4 calcium entry – cell-based, HEK293 TRPC4/mu-opioid, Fluo-4 calcium, dose response (AID 434942); type: functional;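 also: potency of inhibitors blocking the TRPC4 calcium response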
# T5 sequence (Q9QUQ5 whole entry): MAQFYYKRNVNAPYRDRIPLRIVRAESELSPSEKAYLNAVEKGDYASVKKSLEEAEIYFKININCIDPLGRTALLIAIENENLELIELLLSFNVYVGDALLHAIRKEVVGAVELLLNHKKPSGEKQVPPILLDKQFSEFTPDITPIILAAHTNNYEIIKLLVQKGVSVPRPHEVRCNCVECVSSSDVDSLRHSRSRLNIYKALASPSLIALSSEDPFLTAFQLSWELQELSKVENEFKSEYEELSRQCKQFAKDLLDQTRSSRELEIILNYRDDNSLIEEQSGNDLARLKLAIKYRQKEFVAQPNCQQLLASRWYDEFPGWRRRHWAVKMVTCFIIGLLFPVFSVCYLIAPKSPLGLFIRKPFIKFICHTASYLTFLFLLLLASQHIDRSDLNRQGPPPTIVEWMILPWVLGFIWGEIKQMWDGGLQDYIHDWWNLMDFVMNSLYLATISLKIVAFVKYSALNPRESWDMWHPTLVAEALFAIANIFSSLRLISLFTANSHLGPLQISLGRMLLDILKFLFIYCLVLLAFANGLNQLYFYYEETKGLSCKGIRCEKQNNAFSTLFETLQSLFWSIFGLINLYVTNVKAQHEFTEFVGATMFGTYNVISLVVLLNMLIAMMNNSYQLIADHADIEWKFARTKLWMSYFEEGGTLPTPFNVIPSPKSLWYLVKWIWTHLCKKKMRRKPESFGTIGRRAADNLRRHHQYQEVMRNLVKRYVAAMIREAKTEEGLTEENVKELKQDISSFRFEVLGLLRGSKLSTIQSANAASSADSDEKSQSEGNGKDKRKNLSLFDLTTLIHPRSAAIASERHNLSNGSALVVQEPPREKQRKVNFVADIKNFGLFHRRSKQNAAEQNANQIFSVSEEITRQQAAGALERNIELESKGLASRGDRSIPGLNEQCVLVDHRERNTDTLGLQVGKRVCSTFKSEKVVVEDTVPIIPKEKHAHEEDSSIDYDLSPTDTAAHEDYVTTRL
# H9c2 = test: cells; type: functional, cell-based; conditions: Rattus norvegicus, H9c2, Myocardium;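 also: confirmatory concentration-response retest of ultra-high-throughput screening hits for modulation of myocardial damage; cell death induced by hydrogen peroxide oxidative stress; compound pretreatment for 60 min then peroxide exposure for 2 h; potency is for protecting the cells against peroxide damage rather than for killing them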
# [12] = molecular target: T6, RNA-binding protein pos-1 (Caenorhabditis elegans, UniProt G5EF15); test: disruptors of C. elegans POS-1 RNA interaction – biochemical, fluorescence polarization, dose response (AID 1964);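 also: purified POS-1 fused to maltose binding protein made in E. coli; potency of compounds blocking POS-1 binding to fluorescent RNA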
# T6 sequence (G5EF15 whole entry): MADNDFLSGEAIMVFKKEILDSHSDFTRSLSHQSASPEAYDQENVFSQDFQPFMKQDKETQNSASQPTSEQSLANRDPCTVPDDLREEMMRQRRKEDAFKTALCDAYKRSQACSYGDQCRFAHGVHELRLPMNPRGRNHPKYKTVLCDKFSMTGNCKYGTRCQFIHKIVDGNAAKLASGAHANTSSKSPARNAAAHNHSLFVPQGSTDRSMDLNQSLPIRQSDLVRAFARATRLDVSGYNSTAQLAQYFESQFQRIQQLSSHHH
# [13] = molecular target: T7, Zinc finger protein mex-5 (Caenorhabditis elegans, UniProt Q9XUB2); test: potency of MEX-5 RNA-binding blockers – biochemical, C. elegans, fluorescence polarization, dose response (AID 1960)
# T7 sequence (Q9XUB2 whole entry): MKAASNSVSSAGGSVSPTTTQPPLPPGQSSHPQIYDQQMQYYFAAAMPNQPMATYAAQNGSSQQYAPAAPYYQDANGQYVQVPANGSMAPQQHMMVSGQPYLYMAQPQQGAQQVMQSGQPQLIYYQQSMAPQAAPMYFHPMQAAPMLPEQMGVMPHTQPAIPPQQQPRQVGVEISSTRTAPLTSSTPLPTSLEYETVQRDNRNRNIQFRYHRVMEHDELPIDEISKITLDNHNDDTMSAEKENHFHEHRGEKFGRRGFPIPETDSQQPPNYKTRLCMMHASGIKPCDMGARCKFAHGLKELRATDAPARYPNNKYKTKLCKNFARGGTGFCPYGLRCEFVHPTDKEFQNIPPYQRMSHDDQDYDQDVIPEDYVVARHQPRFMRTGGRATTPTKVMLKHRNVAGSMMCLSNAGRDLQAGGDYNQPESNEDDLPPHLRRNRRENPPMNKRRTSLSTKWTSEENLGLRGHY
# Paired box protein Pax-8 = Paired box protein Pax-8 (Homo sapiens, UniProt Q06710); test: PAX8 transcriptional activity inhibition in RMG-I – RMG-I cells, luciferase, cherry-pick, dose response (AID 687027); type: functional, cell-based;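 also: luciferase reporter driven by Pax8 target thyroperoxidase promoter measured by SteadyGlo luminescence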
# Paired box protein Pax-8, sequence (Q06710 whole entry): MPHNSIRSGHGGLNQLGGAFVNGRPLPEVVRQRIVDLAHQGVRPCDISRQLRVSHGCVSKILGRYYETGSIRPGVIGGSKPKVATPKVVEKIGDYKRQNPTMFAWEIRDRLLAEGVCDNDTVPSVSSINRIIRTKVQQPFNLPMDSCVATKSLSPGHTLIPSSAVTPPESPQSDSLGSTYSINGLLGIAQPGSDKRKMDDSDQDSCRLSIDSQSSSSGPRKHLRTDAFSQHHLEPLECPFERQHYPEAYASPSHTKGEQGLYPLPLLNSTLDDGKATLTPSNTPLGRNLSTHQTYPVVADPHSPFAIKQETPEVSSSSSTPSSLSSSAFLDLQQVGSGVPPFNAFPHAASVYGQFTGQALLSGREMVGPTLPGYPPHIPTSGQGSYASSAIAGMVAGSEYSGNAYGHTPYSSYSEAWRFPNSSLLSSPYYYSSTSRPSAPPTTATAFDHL
smiles,measurement,setting,value
COc1ccc(C(=O)NCCc2ccc(Cl)cc2)cc1S(=O)(=O)N1CCCCC1C (stereo unspecified),AC50,[1],21.7 µM (active)
same,AC50,[2],67.5 µM (active)
same,AC50,[3],11.4 µM (active)
CCOC(=O)c1cc(-c2ccc3c(c2)OCCO3)n[nH]1,EC50,[4],0.345 µM (active)
same,IC50,[5],> 100 µM (not active)
same,IC50,[6],6.04 µM (active)
COc1ccc(Br)cc1S(=O)(=O)Nc1ccc2ccccc2c1,IC50,[5],> 10 µM (inconclusive)
same,IC50,[6],> 10 µM (inactive)
O=C(O)c1cc(-c2ccco2)nc2ccccc12,IC50,Estrogen receptor,23.4 µM (active)
same,IC50,[7],> 66 µM (inactive)
same,IC50,[8],> 66 µM (inactive)
NC(=O)C1CCN(c2oc(-c3ccccc3)nc2S(=O)(=O)c2ccc(Br)cc2)CC1,IC50,Nonstructural protein 1,> 100 µM (active)
O=[N+]([O-])c1ccc(N2CCOCC2)cc1NC(c1ccccc1)c1ccccc1,IC50,Nonstructural protein 1,> 100 µM (active)
COC(=O)c1cc(-c2ccc(C)cc2C)n[nH]1,IC50,[5],> 100 µM (not active)
same,IC50,[6],1.62 µM (active)
Cn1c(=O)c2c(nc(NN/C=C3/C(=O)NC(=S)N(c4ccccc4)C3=O)n2C)n(C)c1=O,IC50,Nonstructural protein 1,20.9 µM (active)
Cc1nnc(SCC(=O)Nc2cccc(C(F)(F)F)c2)[nH]c1=O,IC50,Leucine aminopeptidase,15.1 µM (active)
CC(=O)Nc1n[nH]c(SCc2ccc(Br)cc2)n1,IC50,[5],> 100 µM (not active)
same,IC50,[6],> 100 µM (inactive)
CCCCn1c(NC(=O)c2ccccc2)nc2ccccc21,EC50,[9],2.15 µM (active)
same,EC50,[10],11.3 µM (active)
same,EC50,[11],5.96 µM (active)
same,IC50,H9c2,9.17 µM (active)
Cc1nc2sccn2c1-c1nc(-c2cc3ccccc3o2)cs1,IC50,Estrogen receptor,10.7 µM (active)
Cc1ccc(NC2=NC(=O)/C(=C/c3ccc(O)c([N+](=O)[O-])c3)S2)cc1Cl,IC50,[5],> 100 µM (not active)
Cc1ccc(/C=c2/sc3nnc(-c4ccccc4Cl)n3c2=O)o1,IC50,Leucine aminopeptidase,28.7 µM (active)
c1ccc(COc2nsnc2N2CCOCC2)cc1,IC50,Nonstructural protein 1,> 100 µM (active)
CCOC(=O)CC(=O)CSc1nc(O)c2sc(=S)n(-c3ccccc3)c2n1,IC50,Leucine aminopeptidase,40.6 µM (active)
COc1ccc(Cc2nnc(N3C(=O)[C@H]4CC=CC[C@H]4C3=O)[nH]2)cc1,IC50,[5],> 100 µM (not active)
same,IC50,[6],96 µM (active)
Cc1ccc(NC(=O)c2sc3nc4c(c(-c5ccco5)c3c2N)CCC4)cc1,EC50,[12],2.13 µM (active)
same,EC50,[13],2.85 µM (active)
same,IC50,Estrogen receptor,> 50 µM (not active)
COc1ccc2nc3oc(C(=O)N4CCN(c5cccc(C(F)(F)F)c5)CC4)cc3cc2c1,IC50,Estrogen receptor,15.4 µM (active)
Cc1ccc(S(=O)(=O)Cc2ccc(C(=O)NCc3ccc4c(c3)OCO4)o2)cc1,IC50,Estrogen receptor,37.5 µM (not active)
C[C@H](CO)N1C[C@H](C)[C@H](CN(C)Cc2ccc(Cl)c(Cl)c2)Oc2c(NS(=O)(=O)c3ccc(Cl)cc3)cccc2C1=O,AC50,[1],26.9 µM (active)
same,AC50,[2],20.1 µM (active)
same,AC50,Paired box protein Pax-8,13.7 µM (active)
same,AC50,[3],42.9 µM (active)
CCc1c(O)nc(SCC(=O)Nc2ccc3c(c2)CCC3)nc1O,IC50,Leucine aminopeptidase,8.08 µM (active)
CCSc1nnc(NC(=O)C2CCCCC2C(=O)OCC(F)(F)C(F)F)s1 (stereo unspecified),IC50,Leucine aminopeptidase,76.8 µM (active)
